The results in this text go back to patent publication US11035858B2, “Methods of isolating barrel-like proteases and identifying peptides processed thereby” (Yeda Research and Development Co. Ltd., priority 2016, dated 2021).

The structures appear in SMILES notation. Residues, ends and D or L forms follow the SMILES beside them. *: point of attachment. Cbz = O=C(OCc1ccccc1)*

The target of the experiment is T1, Purified proteasomes (Homo sapiens, UniProt P28074).
T1 construct: using this protocol active proteasomes are efficiently isolated from cells; endogenous in cells; immunoprecipitated with anti-α6 antibodies
In words: Proteasome activity-based assay with fluorogenic Suc-LLVY-Amc substrate. The experiment is classed as biochemical. The conditions noted are these: fluorescent LLVY peptide substrate; FIG. 2. The protocol: Proteasome Activity-Based Assay.
Purified proteasomes were incubated with the fluorogenic substrate peptide Suc-LLVY-Amc (100 μM) in a reaction mixture containing 50 mM Hepes, pH 7.5, 1 mM DTT, 5 mM MgCl2, and 2 mM ATP. fluorescence of cleaved Amc was measured (excitation, 360 nm; emission, 470 nm).
A unique system of ‘Proteasomal Profiling’ was developed for the isolation of the active-degradome from the cell by purifying the proteasomal peptide pool, which represents proteins actively undergoing degradation at the time of experiment (FIG. 1). Proteasomal complexes were purified by immunoprecipitation using specific antibodies against the α6 subunit of the 20S core particle. To examine whether the catalytic activity of the proteasomes is retained during the purification procedures, an activity-based assay was performed using a fluorescent LLVY peptide substrate.

In the case of `CC(C)C[C@@H](C=O)NC(=O)[C@H](CC(C)C)NC(=O)[C@H](CC(C)C)NC(=O)OCc1ccccc1` [MG132] (Cbz-Leu-Leu-Leu-aldehyde), the “degradation of the LLVY substrate by purified proteasomes” value was “sensitive”.
